Here are results for 23 compounds from PubChem BioAssay (NCI).

The structures appear in SMILES notation. Several values for one entry are separate records, joined by “and”; a condition that tells them apart may be missing. Equal entries are not always repeated.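 Exposure lasted 48 hours, with cells grown in 96-well plates and compounds tested at five concentrations. The concentration for 50% growth inhibition is given as GI50. TGI: total growth inhibition.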

Assay in all cases: growth of human tumour cells (NCI), 48 h
Test [1] has as its system TK-10 renal.
Test [2] relates to HOP-62 NSCLC.
For test [3], the system named is SNB-19 CNS.
For test [4], the system named is MDA-MB-231 breast.
Test [5] has as its system SW-620 colon.
In test [6] the test system is U251 CNS.
For test [7], the system named is COLO 205 colon.
Test [8] has as its system OVCAR-5 ovarian.
Test [9] relates to IGROV1 ovarian.
Test [10] has as its system MALME-3M melanoma.

Take `Cc1c(C2=C(Br)C(=O)N(C)C2=O)c(=O)n(C)c(=O)n1C`: the TGI is 31.8 µM in test [1]; greater than 100 µM in [2]; greater than 100 µM in test [3]; 65.3 µM in test [4]; greater than 100 µM in test [5]; greater than 100 µM in [6]. The TGI in test [7] is 34.5 µM; in test [8] it was greater than 100 µM; in test [9] it was 36.5 µM.

Turning to `Cc1cc(S(=O)(=O)N/N=C(\Sc2cc(Cl)c(C)cc2S(N)(=O)=O)c2ccc(Cl)cc2)c(Cl)cc1Cl`, the GI50 is greater than 100 µM in [1]; greater than 100 µM in test [2]; greater than 100 µM in test [3]; 34.2 µM in test [4]; 40.4 µM in [5]; 53.1 µM in test [6]. Further, the GI50 in [7] is greater than 100 µM; in test [8] it was greater than 100 µM; in test [9], 70.2 µM. For the same compound, the TGI in test [1], in [2], in test [3], in test [4], in test [5] and in test [6] was greater than 100 µM each time. Moreover, the TGI in test [7], in [8] and in test [9] was greater than 100 µM each time.

For `COc1ccc(C2c3cc(OC)c(OC)cc3C(Cc3ccc([N+](=O)[O-])cc3)C2c2ccc([N+](=O)[O-])cc2)cc1OC` (configuration not stated), the TGI in test [1], in test [2], in [3], in test [5], in test [6] and in test [10] was greater than 100 µM each time. For the same compound, the TGI in test [7], in test [8] and in test [9] was greater than 100 µM each time.

Regarding `CCCCCCCCCCCCCCCCCC(=O)O[C@H](COC(=O)CCCCCCCCCCC)COC(=O)CCCCCCCCCCCCCCC`, the TGI in test [1], in [2], in test [3], in test [5], in test [6] and in test [10] was greater than 100 µM in each case. Moreover, the TGI in test [7], in [8] and in [9] was greater than 100 µM in each case.

For `COc1cccc(-n2c3nc(=O)n(C)c(=O)c-3nc3ccccc32)c1`, the TGI is greater than 100 µM in test [1]; greater than 100 µM in test [2]; 74.3 µM in [3]; 51.6 µM in test [5]; 38.2 µM in test [6]; 29.8 µM in test [10]. For the same compound, the TGI in test [7] was determined as 13.1 µM; in test [8], 37.2 µM; in [9], 59.6 µM.

On to `COC(=O)N/N=C(\C)C(CN1CCCCC1)C(C1=C(O)c2ccccc2OC1)c1ccccc1` (configuration not stated), for which the TGI in [1], in test [2], in [3], in [5], in test [6] and in [10] was greater than 100 µM each time. Also, the TGI in test [7], in test [8] and in [9] was greater than 100 µM each time.

Regarding `COc1ccc(-c2c[nH]c(=S)n2-c2ccc(OC)cc2)cc1`, the GI50 in test [1], in test [2], in [3], in test [4], in test [5] and in test [6] was greater than 50 µM each time. Besides, the GI50 in [7], in test [8] and in test [9] was greater than 50 µM in each case. For the same compound, the TGI in [1], in test [2], in test [3], in [4], in test [5] and in test [6] was greater than 50 µM in each case. Also, the TGI in test [7], in test [8] and in test [9] was greater than 50 µM throughout.

For the compound `O=C(Nc1ccc(-n2cc(-c3ccncc3)c(-c3ccc(Cl)c(O)c3)n2)cc1)Nc1ccc(Cl)c(C(F)(F)F)c1`, the GI50 is 3.64 µM in [1]; 1.68 µM in test [2]; 1.72 µM in test [3]; 1.66 µM in test [4]; 2.48 µM in test [5]; 1.08 µM in [6]. In addition, the GI50 was 1.68 µM in test [7], 3.3 µM in [8] and 2.29 µM in test [9]. Also, the TGI in test [1] came out at 15.1 µM; in [2], 3.18 µM; in [3], 4.7 µM; in [4], 3.31 µM; in [5] it was 5.04 µM; in test [6], 2.32 µM. Besides, the TGI in test [7] came out at 3.7 µM; in test [8], 8.98 µM; in [9], 4.96 µM.

Consider `O=C(Nc1ccc(Br)cc1)c1ccc(Cl)c(Cl)c1`, for which the GI50 was 4.78 µM in test [1]; 3.86 µM in test [2]; 3.87 µM in test [3]; 3.24 µM in test [4]; 3.59 µM in test [5]; 3.27 µM in test [6]. Besides, the values for the GI50 in test [7], in test [8] and in test [9] were 1.81 µM, 3.9 µM and 2.85 µM, respectively. Also, the TGI is greater than 100 µM in test [1]; greater than 52.3 µM in test [2]; greater than 100 µM in [3]; greater than 100 µM in test [4]; greater than 100 µM in [5]; greater than 100 µM in test [6]. In addition, the TGI is 3.7 µM in [7], greater than 100 µM in test [8] and greater than 100 µM in test [9].

On to `COC(=O)/C(C)=C/[N+](=O)[O-]`, for which the TGI is 31.1 µM in test [1]; 57.9 µM in [2]; 32.9 µM in test [3]; 26.8 µM in test [5]; 32.5 µM in test [6]; 31.4 µM in [10]. The TGI came out at 16.6 µM in test [7], 35.4 µM in test [8] and 44.1 µM in test [9].

As for `C[C@@]12CCCc3coc(c31)C(=O)c1cc3c(cc12)C(=O)C=CC3=O`, the GI50 in [1] is greater than 1 µM; in [2], greater than 100 µM; in [3], greater than 1 µM; in [5], greater than 1 µM; in test [6], greater than 1 µM; in test [8], greater than 1 µM. The GI50 in test [9] is greater than 1 µM. Besides, the TGI is > 1 µM and 35.8 µM in test [1]; greater than 100 µM in test [2]; greater than 100 µM in [3]; > 1 µM and 20.1 µM in test [5]; greater than 100 µM in test [6]; greater than 1 µM in test [10]. Also, the TGI in test [7] is greater than 1 µM; in [8] it was > 1 µM and 36.4 µM; in test [9], > 1 µM and 37.1 µM.

For `CC1(C)O/C(=C\c2ccccc2)C(=O)/C(=C/c2ccccc2)O1`, the TGI in test [1], in [2], in [3], in test [5], in test [6] and in test [10] was greater than 100 µM each time. Further, the TGI in [7] is greater than 100 µM; in [8], 60.8 µM; in test [9], greater than 100 µM.

Consider `O=S1OC2(c3ccccc3-c3ccccc32)c2ccccc21` (configuration not stated), for which the TGI in test [1], in test [2], in [3], in [5], in test [6] and in test [10] was greater than 100 µM throughout. Moreover, the TGI in test [7], in [8] and in test [9] was greater than 100 µM throughout.

For `Cc1cc(C)c(C2[C@H]3C(=O)N(c4ccc(Cc5ccc(N6C(=O)[C@@H]7ON(c8ccccc8)C(c8c(C)cc(C)cc8C)[C@@H]7C6=O)cc5)cc4)C(=O)[C@H]3ON2c2ccccc2)c(C)c1` (some centres not stated), the TGI in test [1], in test [2], in [3], in test [5], in test [6] and in test [10] was greater than 100 µM throughout. Further, the TGI in test [7], in test [8] and in test [9] was greater than 100 µM in each case.

Turning to `COC(=O)CCC(=O)CC1CC(=O)C2CCCN12` (configuration not stated), the TGI in test [1], in [2], in [3], in test [5], in [6] and in test [10] was greater than 100 µM each time. In addition, the TGI in test [7], in test [8] and in [9] was greater than 100 µM throughout.

As to `CC12CCCCC1(C)C2Sc1ccccc1` (configuration not stated), the TGI in test [1] is greater than 100 µM; in test [2], greater than 100 µM; in [3], greater than 100 µM; in test [5] it was greater than 100 µM; in test [6], greater than 67.2 µM; in test [10] it was greater than 100 µM. Besides, the TGI in [7], in test [8] and in test [9] was greater than 100 µM each time.

Turning to `CC1=NN(C(=O)CC(=O)N(C(=O)c2ccccc2Cl)c2ccc(C)cc2)C(=O)C1N=Nc1ccc([N+](=O)[O-])cc1` (configuration not stated), the TGI in test [1] was greater than 100 µM; in test [2] it was greater than 100 µM; in test [3], greater than 100 µM; in test [5] it was greater than 53.6 µM; in test [6], 48.9 µM; in test [10], greater than 100 µM. Further, the TGI in test [7] was greater than 58 µM; in test [8], greater than 100 µM; in test [9], greater than 100 µM.

Take `Nc1nc(CCl)nc(Nc2ccccc2)n1`: the TGI in test [1] was 83.4 µM; in test [2], 38.8 µM; in test [3] it was greater than 100 µM; in [5] it was 46.3 µM; in test [6], 15.6 µM; in test [10], 33.7 µM. The TGI in test [7] was found to be 43.4 µM; in [8], 43.4 µM; in test [9] it was 36.1 µM.

For `C[n+]1cc(C(O)c2ccc3c(c2)OCO3)c2ccccc2c1` (configuration not stated), the TGI was greater than 100 µM in [1]; greater than 100 µM in test [2]; greater than 100 µM in [3]; greater than 100 µM in test [5]; greater than 100 µM in test [6]; 65 µM in test [10]. The TGI in test [7], in [8] and in [9] was greater than 100 µM in each case.

As for `CN(C)C(=S)/N=c1\ss/c(=N\C(=S)N(C)C)n1-c1ccc(Cl)c(Cl)c1`, the TGI in [1], in test [2], in [3], in [5], in test [6] and in test [10] was greater than 100 µM throughout. Moreover, the TGI in test [7], in test [8] and in [9] was greater than 100 µM throughout.

As to `CCCCOC(=O)NC(=O)c1cn(CCCOC(=O)NCCCCCCNC(=O)OCCCn2cc(C(=O)NC(=O)OCCCC)c(=O)[nH]c2=O)c(=O)[nH]c1=O`, the TGI in test [1], in [2], in test [3], in test [5], in [6] and in test [10] was greater than 100 µM throughout. Also, the TGI in test [7], in test [8] and in test [9] was greater than 100 µM throughout.

Consider `Cc1cc(C2CC(O)C(CO)O2)cc2c(=O)[nH]c(N)nc12` (configuration not stated), for which the GI50 in test [2], in test [3], in test [4], in [5], in [6] and in test [7] was greater than 100 µM each time. In addition, the GI50 was greater than 100 µM in [8] and 71 µM in test [9]. Also, the TGI in test [2], in test [3], in [4], in test [5], in [6] and in [7] was greater than 100 µM in each case. The TGI in test [8] and in [9] was greater than 100 µM in each case.

For `COc1cc2ccc3c4cc(OC)c(OC(C)C)cc4cnc3c2cc1OC`, the TGI in test [1], in test [2], in test [3], in test [5], in test [6] and in test [10] was greater than 100 µM each time. For the same compound, the TGI in test [7], in test [8] and in [9] was greater than 100 µM in each case.
